Source: patent US10011571B2, “Preparation method for aromatic heterocyclic compound used as selective JAK3 and/or JAK1 kinase inhibitor and application of aromatic heterocyclic compound” (SHENZHEN CHIPSCREEN BIOSCIENCES, LTD., priority 2014, dated 2018)

Biological target: TYK2 (Homo sapiens (Human), UniProt P29597)
Test: Eurofins IC50Profiler radiometric kinase assay, TYK2
Assay type: biochemical
Details: 9 semilog concentrations
Excerpt: A proportion of the compounds of the present invention are subjected to kinase profile screening (KinaseProfiler™)) and enzymatic inhibitory activity (IC50Profiler™)) assay by entrusting Eurofins company (http://www.eurofins.com). Besides the kinases in the JAK family, the kinases that have been screened for their activity also include most Group 3F and Group 4 kinases (ITK, BLK, TBK1, VEGFRs, ERBBs, etc.), and blood system related kinases (Zhang J. et al. 2009, Nat. Rev. Cancer., 9: 28-39). The concentration of the test compound for kinase profile screening is 1 μM, and a gradient of 9 semilog concentration gradients are used to determine IC50. Detection is carried out according to standard procedure of Eurofins Company. Briefly, according to the requirements of different kinase reactions, 0.2 μL test compound (50 μM, dissolved in dimethyl sulfoxide (DMSO)) is added to reaction buffer containing specific kinase (the buffer system containing 20 mM MOPS, 1 mM EDTA, 0.01% Brij-35, 5% Glycerol, 0.1% β-mercaptoethanol, 1 mg/mL BSA, or 50 mM TRIS, 0.1 mM EGTA, 0.1 mM Na3VO4, 0.1% β-mercaptoethanol, 1 mg/mL BSA, based on the type of kinase used). […] After drying, radio-activity is detected. […]

Sequence of TYK2 (P29597 whole entry, species assumed): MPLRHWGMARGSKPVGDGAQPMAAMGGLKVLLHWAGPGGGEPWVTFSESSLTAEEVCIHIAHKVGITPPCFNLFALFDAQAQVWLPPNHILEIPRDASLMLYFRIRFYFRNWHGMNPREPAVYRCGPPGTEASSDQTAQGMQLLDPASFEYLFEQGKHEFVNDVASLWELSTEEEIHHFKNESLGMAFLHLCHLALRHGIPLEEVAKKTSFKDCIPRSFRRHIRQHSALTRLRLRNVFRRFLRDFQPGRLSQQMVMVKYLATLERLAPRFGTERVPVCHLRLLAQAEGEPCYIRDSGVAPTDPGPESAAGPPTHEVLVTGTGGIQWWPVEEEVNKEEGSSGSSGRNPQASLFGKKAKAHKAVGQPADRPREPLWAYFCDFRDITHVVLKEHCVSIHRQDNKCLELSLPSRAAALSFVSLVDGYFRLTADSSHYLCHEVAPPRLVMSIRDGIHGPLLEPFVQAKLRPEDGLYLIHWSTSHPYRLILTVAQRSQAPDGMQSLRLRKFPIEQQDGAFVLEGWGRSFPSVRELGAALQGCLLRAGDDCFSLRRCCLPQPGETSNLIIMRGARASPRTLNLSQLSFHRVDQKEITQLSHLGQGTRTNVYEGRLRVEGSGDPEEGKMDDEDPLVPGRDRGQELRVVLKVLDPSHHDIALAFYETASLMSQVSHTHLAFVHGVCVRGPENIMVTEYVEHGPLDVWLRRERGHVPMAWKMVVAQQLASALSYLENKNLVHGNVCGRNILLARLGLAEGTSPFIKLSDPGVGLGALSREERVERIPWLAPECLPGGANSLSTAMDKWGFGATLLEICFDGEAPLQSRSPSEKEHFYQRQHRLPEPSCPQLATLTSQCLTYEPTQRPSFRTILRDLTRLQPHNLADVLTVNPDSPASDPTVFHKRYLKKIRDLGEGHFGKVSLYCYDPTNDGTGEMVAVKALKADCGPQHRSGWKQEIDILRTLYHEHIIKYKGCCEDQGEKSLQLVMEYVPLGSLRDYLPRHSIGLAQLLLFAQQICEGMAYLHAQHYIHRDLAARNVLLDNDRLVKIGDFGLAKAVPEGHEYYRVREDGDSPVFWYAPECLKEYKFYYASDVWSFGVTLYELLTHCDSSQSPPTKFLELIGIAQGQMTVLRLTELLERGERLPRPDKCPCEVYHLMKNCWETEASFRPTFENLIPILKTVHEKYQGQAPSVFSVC

| Structure (SMILES) | IC50 [µM] |
| --- | --- |
| C=CC(=O)N(C)c1cc(Nc2ncc(Cl)c(NCCCNC(=O)c3ccc(C#N)cc3)n2)ccc1F [Example 7, N-(3-(5-chloro-2-(4-fluoro-3-(N-methylacrylamido)phenylamino)pyrimidinyl-4-amino)propyl)-4-cyano-benzamide] | > 10 |
| C=CC(=O)N(C)c1cc(Nc2ncc(Cl)c(NCCCNC(=O)c3ccc(C(F)(F)F)cc3)n2)ccc1F [Example 22, N-(3-(5-chloro-2-(4-fluoro-3-(N-methylacrylamido)phenylamino)pyrimidinyl-4-amino)propyl)-4-trifluoromethylbenzamide] | > 10 |
